Laboratory results reported in patent US20090233964A1, “METHODS FOR IMPROVING THE PHARMACOKINETICS OF HIV INTEGRASE INHIBITORS” (priority 2005, published 2009).
Like-named read-outs stand apart in the source and are kept apart here.

Legend:
[1] = Example 3: RTV pharmacokinetics when dosed with Compound 1; type: in vivo, human; conditions: RTV 100 mg QD with Compound 1; mean (CV %)
Experimental: (§1) The effects of a range of RTV doses (20, 50, 100, and 200 mg once daily) on hepatic cytochrome P450 3A (CYP3A) activity were also evaluated using a CYP3A substrate.
(§2) A randomized, open label, single-center, multiple-dose, two group, Phase 1 study was conducted (24 subjects (16 evaluable) subjects in two groups; 12 (8 evaluable) in each group) with an approximately even distribution of healthy male and non-pregnant, non-lactating female subjects aged between 18-45, inclusive
(§3) The population mean slope was estimated along with a corresponding 90% CI. This study was performed in compliance with the guidelines of Good Clinical Practices (GCPs).

[2] = tested on: hepatic cytochrome P450 3A (CYP3A) activity; test: Example 3: IV midazolam (MDZ) pharmacokinetics as probe for CYP3A activity at a range of RTV doses; conditions: for AUCinf: MDZ 1 mg IV, mean
Experimental: as §1, §2
For MDZ: AUC0-last, AUCinf, % AUCexp, Clast, Tlast, λz, T1/2, CL and Vz.
as §3

[3] = Example 5: pharmacokinetic drug-drug interaction of zidovudine and Compound 1/r; type: in vivo, human; conditions: for AUCtau, Cmax, Ctau (Compound 1 only) 90% CI of GMR (co-administration:alone): Compound 1/r 200/100 mg QD plus ZDV 300 mg BID, with a meal, bounds 70% to 143%
Description: Zidovudine is a NRTI used in HIV patients.

[4] = Example 1: plasma pharmacokinetics of Compound 1 alone and coadministered with RTV in healthy subjects; type: in vivo, human; conditions: 100 mg
Description: The study was an open-label, fixed-sequence, crossover, pharmacokinetic study with 12 subjects. The subjects were healthy males and non-pregnant, nonlactating females between 18 and 45 years of age, inclusive. The duration of the study was 20 days, with Period 1 of Days 1 to 10 and Period 2 of days 11 to 20. Follow-up contact was on day 27.

[5] = Example 1: multiple-dose safety of Compound 1 alone and with RTV; type: in vivo, human
Experimental: The single-dose and multiple-dose pharmacokinetics of Compound 1 were also determined. The multiple-dose safety of Compound 1 administered alone and with RTV was also determined. Safety: Safety was evaluated by assessment of clinical laboratory tests at baseline and at various time points during the study; periodic physical examinations, including vital signs; and documentation of adverse events throughout the study. Safety: No statistical inference was performed for safety data in this pharmacokinetic study.

[6] = tested on: HIV-1; test: Example 2: antiviral activity (HIV-1 RNA reduction) and exposure-response in subjects infected with HIV-1; type: in vivo, human
Experimental: At screening, subjects were to have a plasma HIV-1 RNA load of ≧10,000 to ≦300,000 copies/mL and a CD4+ cell count of ≧200 cells/mm^3.
Safety, tolerability, pharmacokinetics, and efficacy were monitored through Day 21 after dosing. […] The placebo group in Cohort 5 also received 100 mg of RTV.
The duration of the study was 21 days, with 10 days of treatment and 11 days of follow-up. […] Matching placebo was administered orally under fed conditions. For Cohort 5 only, 100 mg RTV capsules were coadministered orally under fed conditions.
Efficacy: The primary efficacy endpoint was the maximum HIV-1 RNA reduction (log10 copies/mL) from baseline through Day 11. The maximum reduction for an individual subject was the maximum drop among changes from baseline between Days 2 and 11.
The 2 subjects who received placebo+100 mg RTV were treated as a separate group. HIV-1 RNA values below the detection limit (50 copies/mL) were entered as 49 copies/mL.

[7] = human, in vivo
Experimental: Safety, tolerability, pharmacokinetics, and efficacy were monitored through Day 21 after dosing. The active treatments in the 5 cohorts were as follows: […] The duration of the study was 21 days, with 10 days of treatment and 11 days of follow-up. […] Matching placebo was administered orally under fed conditions. For Cohort 5 only, 100 mg RTV capsules were coadministered orally under fed conditions. […] Pharmacokinetics: The pharmacokinetic parameters of Compound 1 in plasma and peripheral blood mononuclear cells were summarized using descriptive statistics.

[8] = human, in vivo; remark: listed apart in the source
Experimental: Safety, tolerability, pharmacokinetics, and efficacy were monitored through Day 21 after dosing. The active treatments in the 5 cohorts were as follows: […] Safety: Adverse events, vital signs, electrocardiogram, ophthalmologic examination, and clinical laboratory tests were evaluated for safety. Safety: The proportion of subjects with adverse events was summarized by treatment, system organ class and preferred term for treatment-emergent adverse events, treatment-related adverse events, serious adverse events, and adverse events leading to study drug discontinuation. Adverse events were coded using the Medical Dictionary for Regulatory Activities (MedDRA®) version 8.1. […] Laboratory results were expressed on the original measurement scale and in terms of the toxicity grade. Changes from baseline in quantitative laboratory tests were summarized by visit.

[9] = Example 3: Compound 1 pharmacokinetics at a range of RTV doses; type: in vivo, human; conditions: Compound 1 125 mg QD + 200 mg RTV; mean
Experimental: as §1, §2, §3

[10] = in vivo
Experimental: Pharmacokinetic (PK) blood draws were performed on days 7, 17, and 27.

[11] = Example 4: safety of FTC/TDF and Compound 1/r; type: in vivo, human; conditions: Compound 1/r and their co-administration
[12] = Example 7: effect of food on pharmacokinetics of Compound 1 in Japanese male healthy volunteers; type: in vivo, human; conditions: 400 mg
Experimental: Subjects in the 400 mg fasted cohort received an additional 400 mg dose with breakfast after a washout period (generally a minimum of ten days after the initial administration). The interval of ten days between the two doses was considered appropriate for eliminating any within subject carryover effects. […] Doses were administered at similar times for each subject in each treatment period. […] Plasma samples were isolated from healthy subjects administered with Compound 1. The plasma samples were extracted by solid phase extraction using Empore™ Disk Plate (C8SD), and then measured by high-performance liquid chromatography/tandem mass spectrometry (LC/MS/MS) (HPLC model 2795 separations module from Waters; mass spectrometer model API4000 from MDS SCIEX). Ionization and detection were performed with electrospray ionization and positive ion detection with multiple reaction monitoring, respectively. […] To 50 μL of plasma samples spiked with […] each of 90% acetonitrile and 20 mmol/L ammonium formate-formic acid buffer (pH 3.0)/acetonitrile (10:90, v/v), 10 μL each of internal standard solution was added. To these samples, 200 μL of 0.1% formic acid in 10% acetonitrile was added. These solutions were then mixed for 10 seconds and centrifuged at 10,000 rpm for 5 minutes at 4° C. […] Then, 10 μL of each solution was injected into the LC/MS/MS system and analyzed.

[13] = Example 7: safety of single 400 mg dose of Compound 1; type: in vivo, human; conditions: single oral dose, Japanese male healthy volunteers
Experimental: The subjects were admitted to the medical institution in the afternoon on the day before administration (“Day −1”). […] The subjects were discharged the day after administration (“Day 2”). Thus, the subjects were hospitalized for a total of three days. Follow up assessment for safety was performed 6 to 8 days after administration (“Days 7 to 9”).

[14] = after administration of Compound 1+RTV

In the case of `CC(C)c1nc(CN(C)C(=O)N[C@H](C(=O)N[C@@H](Cc2ccccc2)C[C@H](O)[C@H](Cc2ccccc2)NC(=O)OCc2cncs2)C(C)C)cs1` [Ritonavir, (2S,3S,5S)-5-(N—(N—((N-Methyl-N-((2-isopropyl-4-thiazolyl)methyl)amino)-carbonyl)-L-valinyl)amino)-2-(N-((5-thiazolyl)methoxycarbonyl)amino)-1,6-diphenyl-3-hydroxyhexane], the Half-life [1] is reported as 6.34 (18.4) hr.
Work on `Cc1ncc2n1-c1ccc(Cl)cc1C(c1ccccc1F)=NC2` [MDZ, midazolam] yielded an AUCinf ([2]; +20 mg RTV QD with Compound 1 125 mg) of 0.101 µg·h/mL, an AUCinf ([2]; +50 mg RTV QD with Compound 1 125 mg) of 0.145 µg·h/mL and an AUCinf ([2]; +100 mg RTV QD with Compound 1 125 mg) of 0.219 µg·h/mL. It also gave an AUCinf ([2]; +200 mg RTV QD with Compound 1 125 mg) of 0.146 µg·h/mL, an AUCinf ([2]; MDZ alone (Day 1)) of 0.031 µg·h/mL and a CL ([2]; MDZ +20 mg RTV) of 0.143 L/h/kg. The Clast ([2]; MDZ +20 mg RTV) was 1.53 ng/mL, the Half-life ([2]; MDZ +20 mg RTV) was 7.83 h and the CL ([2]; MDZ +50 mg RTV) was 0.090 L/h/kg. It also gave a Clast ([2]; MDZ +50 mg RTV) of 2.51 ng/mL, a Half-life ([2]; MDZ +50 mg RTV) of 14.4 h and a CL ([2]; MDZ +100 mg RTV) of 0.072 L/h/kg. The Clast ([2]; MDZ +100 mg RTV) was 3.34 ng/mL, the Half-life ([2]; MDZ +100 mg RTV) was 22.4 h and the CL ([2]; MDZ +200 mg RTV) was 0.087 L/h/kg. The Clast ([2]; MDZ +200 mg RTV) was 2.58 ng/mL, the Half-life ([2]; MDZ +200 mg RTV) was 15.2 h and the CL ([2]; MDZ alone) was 0.447 L/h/kg. The Clast ([2]; MDZ alone) was 0.20 ng/mL and the Half-life ([2]; MDZ alone) was 3.97 h.
In the case of `Cc1cn([C@H]2C[C@H](N=[N+]=[N-])[C@@H](CO)O2)c(=O)[nH]c1=O` [ZDV, zidovudine, reference compound], the “AUCtau, Cmax, Ctau (Compound 1 only) 90% CI of GMR (co-administration:alone)” value [3] is reported as “within predefined PK equivalence bounds”.
With `Cc1cn([C@H]2C[C@H](N=[N+]=[N-])[C@@H](CO[C@@H]3O[C@H](C(=O)O)[C@@H](O)[C@H](O)[C@H]3O)O2)c(=O)[nH]c1=O` [G-ZDV] the “AUCtau, Cmax, Ctau (Compound 1 only) 90% CI of GMR (co-administration:alone)” value [3] was “within predefined PK equivalence bounds”.
With `COc1cc2c(cc1Cc1cccc(Cl)c1F)c(=O)c(C(=O)O)cn2[C@H](CO)C(C)C` [Compound 1, 6-(3-chloro-2-fluorobenzyl)-1-[(2S)-1-hydroxy-3-methylbutan-2-yl]-7-methoxy-4-oxo-1,4-dihydroquinoline-3-carboxylic acid] the “mean steady-state systemic exposure (AUCtau, Day 10) lower compared with mean exposure (AUCinf) after a single dose (Day 1)” value ([4]; Compound 1 alone, indicating autoinduction) was “approximately 20%”, the AUC ([4]; both sexes, human, plasma, po) was 0.908 µg·h/mL and the serious adverse events ([5]; Compound 1 alone and Compound 1+RTV, whole study) was “No serious adverse events occurred”. For the same molecule, the “subjects with treatment-emergent AEs considered related to study drugs” value [5, 14] was 5 of 12 subjects, the “treatment-related AEs reported in more than one subject” value [5, 14] was “nausea (three subjects), vomiting (two subjects), headache (two subjects), and pruritus (two subjects)” and the “subjects with treatment-emergent AEs considered related to study drugs” value ([5]; after administration of Compound 1 alone) was 2 of 12 subjects. For the same molecule, the tolerability ([5]; concurrent oral Compound 1 100 mg twice daily and RTV 100 mg twice daily for up to 10 days) was “generally well-tolerated”, the “subjects experiencing nausea (most frequent treatment-emergent AE)” value ([5]; during administration of Compound 1+RTV) was 4 subjects and the “subjects with treatment-emergent adverse events” value ([5]; during administration of Compound 1+RTV, each 100 mg twice daily) was 7 of 12 subjects. For the same molecule, the “subjects with treatment-emergent adverse events” value ([5]; during administration of Compound 1 alone, 100 mg twice daily) was 4 of 12 subjects, the tolerability ([5]; oral Compound 1 100 mg twice daily for up to 20 days) was “well tolerated” and the “Emax (reduction from baseline, simple Emax model)” value ([6]; Compound 1 Ctau versus HIV-1 RNA reduction) was 2.32 log10 copies/mL. The “HIV-1 RNA levels compared with placebo” value ([6]; all dose levels, 10 consecutive days) was “significantly reduced HIV-1 RNA levels”, the enhancement of exposure [7] was 10 to 16 fold and the “changes in hematology and urinalysis findings, vital signs, body weight, electrocardiogram and ophthalmic examinations” value [8] was “No clinically relevant changes”. The “dose interruptions, discontinuations, or serious adverse events” value [8] was “no dose interruptions, discontinuations, or serious adverse events”, the tolerability [8] was “generally well tolerated” and the AUCtau [9] was 20.6 µg·h/mL. The “PK (Cmax, AUCtau, Ctau) during co-administration versus alone” value [10] was “unaffected”, the “serious adverse events or discontinuations due to AEs” value [11] was “no serious adverse events” and the Half-life ([3]; human, in vivo) was “supporting once daily dosing”. For the same molecule, the “AUC0-inf higher in the fed state compared to the fasted state” value [12] was 2.69 fold, the “Cmax higher in the fed state compared to the fasted state” value [12] was 3.30 fold and the “electrocardiogram (ECG) changes” value [13] was “No clinically significant electrocardiogram (ECG) changes were noted”. The safety and tolerability [13] was “safe and well tolerated with no serious adverse events”.
